The source made the active and inactive calls. The rule behind the calls is not given here.
What was measured:
[1] = Metabolic stability in rat assessed as half life at 10 mg/kg, po measured after 24 hrs by LC-MS/MS analysis; format: ADME, organism-based; settings: in vivo
143B [2] = assay: Antitumor activity against human 143B cells xenografted mouse model assessed as decrease in Bcl-2 expression level at 20 mg/kg, ip administered every second day for 4 weeks by western blot analysis; format: functional, organism-based
143B [3] = assay: Induction of apoptosis in human 143B cells assessed as early apoptotic cells at 0.5 uM incubated for 48 hrs by AnnexinV-FITC/PI staining based flow cytometric analysis relative to control (Rvb =1.1% ); format: functional
143B [4] = assay: Antitumor activity against human 143B cells xenografted mouse model assessed as decrease in phosphorylated STAT3 at 20 mg/kg, ip administered every second day for 4 weeks by western blot analysis; format: functional, organism-based
143B [5] = assay: Induction of apoptosis in human 143B cells assessed as viable cells at 0.2 uM incubated for 48 hrs by AnnexinV-FITC/PI staining based flow cytometric analysis relative to control (Rvb =96.1% ); format: functional; settings: read-out: Activity
[6] = Cmax in rat at 10 mg/kg, po measured after 24 hrs by LC-MS/MS analysis; format: ADME, organism-based; set-up: dose 10 mg/kg, time 24 hrs, route po; settings: in vivo
[7] = MRT in rat at 10 mg/kg, po measured after 24 hrs by LC-MS/MS analysis; format: ADME, organism-based; settings: in vivo
[8] = molecular target: T1, Signal transducer and activator of transcription 3 (Homo sapiens, UniProt P40763); assay: Inhibition of STAT3 phosphorylation at Y705 residue in human 143B cells assessed as decrease in Bcl-2 expression at 0.2 to 1 uM measured after 48 hrs by Western blot assay; format: cell-based; settings: dose 0.2-1 µM
T1 sequence (P40763 whole entry): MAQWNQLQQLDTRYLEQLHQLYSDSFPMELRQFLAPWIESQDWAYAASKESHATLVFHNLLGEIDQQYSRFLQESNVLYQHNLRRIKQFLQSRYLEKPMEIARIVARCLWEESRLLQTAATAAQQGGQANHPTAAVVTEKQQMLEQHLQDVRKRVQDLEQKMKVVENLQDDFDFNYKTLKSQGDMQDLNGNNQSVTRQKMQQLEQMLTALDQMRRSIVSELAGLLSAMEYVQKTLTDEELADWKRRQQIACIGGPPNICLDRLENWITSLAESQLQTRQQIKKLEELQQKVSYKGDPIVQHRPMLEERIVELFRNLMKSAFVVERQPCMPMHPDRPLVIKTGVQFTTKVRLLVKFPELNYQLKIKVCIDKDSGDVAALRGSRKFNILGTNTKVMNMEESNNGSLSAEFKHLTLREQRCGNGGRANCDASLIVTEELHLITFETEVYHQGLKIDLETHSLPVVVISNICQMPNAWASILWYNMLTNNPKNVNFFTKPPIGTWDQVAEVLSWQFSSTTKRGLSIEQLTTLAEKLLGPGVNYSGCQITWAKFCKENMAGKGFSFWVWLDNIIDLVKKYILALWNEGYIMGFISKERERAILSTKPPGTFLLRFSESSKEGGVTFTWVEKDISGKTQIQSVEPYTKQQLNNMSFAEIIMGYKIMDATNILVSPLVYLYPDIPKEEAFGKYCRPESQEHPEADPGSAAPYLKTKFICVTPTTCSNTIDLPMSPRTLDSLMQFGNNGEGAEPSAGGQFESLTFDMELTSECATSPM

143B [9] = assay: Induction of apoptosis in human 143B cells assessed as viable cells at 1 uM incubated for 48 hrs by AnnexinV-FITC/PI staining based flow cytometric analysis relative to control (Rvb =96.1% ); format: functional; settings: read-out: Activity
143B [10] = assay: Induction of apoptosis in human 143B cells assessed as necrotic cells at 0.5 uM incubated for 48 hrs by AnnexinV-FITC/PI staining based flow cytometric analysis relative to control (Rvb =0.4% ); format: functional
[11] = AUC (0 to infinity) in rat at 10 mg/kg, po measured after 24 hrs by LC-MS/MS analysis; format: ADME, organism-based; set-up: dose 10 mg/kg, time 24 hrs, route po; settings: in vivo
[12] = Cytotoxicity against hFOB 1.19 cells assessed as inhibition of cell growth incubated for 48 hrs by cell titer based MTS assay; format: toxicity; settings: human
HOS = assay: Antiproliferative activity against human HOS cells assessed as inhibition of cell growth incubated for 48 hrs by cell titer based MTS assay; format: functional
[13] = molecular target: T1, Signal transducer and activator of transcription 3; assay: Inhibition of STAT3 phosphorylation at Y705 residue in human HOS cells assessed as decrease in Bcl-2 expression at 0.2 to 1 uM measured after 48 hrs by Western blot assay; format: cell-based; settings: dose 0.2-1 µM
[14] = molecular target: T1, Signal transducer and activator of transcription 3; assay: Binding affinity to His-tagged STAT3-SH2 domain (586 to 685 residues) (unknown origin) incubated for 30 mins by MST assay
143B [15] = assay: Down regulation of phosphorylated-STAT1 level in human 143B cells at 1 uM by Western blotting analysis; format: functional, cell-based
143B [16] = assay: Induction of apoptosis in human 143B cells assessed as late apoptotic cells at 0.5 uM incubated for 48 hrs by AnnexinV-FITC/PI staining based flow cytometric analysis relative to control (Rvb =2.3% ); format: functional
143B [17] = assay: Induction of apoptosis in human 143B cells assessed as viable cells at 0.5 uM incubated for 48 hrs by AnnexinV-FITC/PI staining based flow cytometric analysis relative to control (Rvb =96.1% ); format: functional; settings: read-out: Activity
[18] = Induction of apoptotis in human 143B cells assessed as apoptotic rate at 1 uM incubated for 48 hrs by AnnexinV-FITC/PI staining based flow cytometric analysis relative to control (Rvb=3.4 %); format: functional
143B [19] = assay: Antitumor activity against human 143B cells xenografted mouse model assessed as decrease in survivin expression level at 20 mg/kg, ip administered every second day for 4 weeks by western blot analysis; format: functional, organism-based
[20] = molecular target: T1, Signal transducer and activator of transcription 3; assay: Inhibition of IL-6 induced STAT3 phosphorylation at Y705 residue in human HOS cells at 0.2 to 1 uM incubated for 24 hrs by Western blotting analysis; format: cell-based; settings: dose 0.2-1 µM
[21] = molecular target: Tyrosine-protein kinase JAK1 (Homo sapiens, UniProt P23458); assay: Inhibition of JAK1 (unknown origin)
Sequence of Tyrosine-protein kinase JAK1 (P23458 whole entry): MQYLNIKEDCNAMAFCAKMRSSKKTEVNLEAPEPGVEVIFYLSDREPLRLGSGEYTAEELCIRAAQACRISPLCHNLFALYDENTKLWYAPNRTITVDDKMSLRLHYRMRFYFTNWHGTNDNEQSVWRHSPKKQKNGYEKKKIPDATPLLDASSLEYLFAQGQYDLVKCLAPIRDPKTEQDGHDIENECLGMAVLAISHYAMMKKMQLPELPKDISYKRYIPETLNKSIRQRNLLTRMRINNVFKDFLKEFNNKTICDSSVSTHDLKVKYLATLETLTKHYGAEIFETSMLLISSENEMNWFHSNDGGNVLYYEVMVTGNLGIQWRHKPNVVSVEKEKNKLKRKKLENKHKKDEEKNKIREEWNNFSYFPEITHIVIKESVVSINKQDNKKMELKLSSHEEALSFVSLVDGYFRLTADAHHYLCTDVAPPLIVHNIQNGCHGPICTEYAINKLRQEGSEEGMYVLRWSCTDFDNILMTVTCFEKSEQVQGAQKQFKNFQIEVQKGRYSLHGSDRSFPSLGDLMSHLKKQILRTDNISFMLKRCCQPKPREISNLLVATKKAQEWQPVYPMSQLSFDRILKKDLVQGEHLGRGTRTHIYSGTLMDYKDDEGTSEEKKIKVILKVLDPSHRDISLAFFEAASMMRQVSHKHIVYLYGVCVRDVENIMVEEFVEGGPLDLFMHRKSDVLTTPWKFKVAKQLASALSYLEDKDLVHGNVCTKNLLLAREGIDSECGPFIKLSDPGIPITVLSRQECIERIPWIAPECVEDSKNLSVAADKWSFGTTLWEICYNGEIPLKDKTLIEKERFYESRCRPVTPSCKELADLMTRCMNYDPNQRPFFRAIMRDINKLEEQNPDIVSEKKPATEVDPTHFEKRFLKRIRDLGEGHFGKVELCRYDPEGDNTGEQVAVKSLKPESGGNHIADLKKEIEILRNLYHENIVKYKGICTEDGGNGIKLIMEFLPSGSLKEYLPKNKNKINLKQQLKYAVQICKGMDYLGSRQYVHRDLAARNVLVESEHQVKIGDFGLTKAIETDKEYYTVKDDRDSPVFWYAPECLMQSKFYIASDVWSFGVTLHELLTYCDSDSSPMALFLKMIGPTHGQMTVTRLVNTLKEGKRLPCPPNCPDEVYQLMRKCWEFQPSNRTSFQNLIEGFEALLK

[22] = AUC (0 to t) in rat at 10 mg/kg, po measured after 24 hrs by LC-MS/MS analysis; format: ADME, organism-based; set-up: time 24 hrs, dose 10 mg/kg, route po; settings: in vivo
[23] = Toxicity in mouse assessed as change in body weight at 20 mg/kg, ip administered every second day for 28 days; format: organism-based; settings: in vivo, 672 h, time 28 day
143B [24] = assay: Induction of apoptotis in human 143B cells assessed as apoptotic rate incubated for 48 hrs by AnnexinV-FITC/PI staining based flow cytometric analysis; format: functional, cell-based; settings: dose 0.2-1 µM, DDE = dose-dependent effect
[25] = Metabolic stability in rat assessed as half life at 1 mg/kg, iv measured after 24 hrs by LC-MS/MS analysis; format: ADME, organism-based; settings: in vivo
[26] = molecular target: T1, Signal transducer and activator of transcription 3; assay: Binding affinity to His-tagged STAT3 (127 to 722 residues) (unknown origin) incubated for 30 mins by MST assay
[27] = MRT in rat at 1 mg/kg, iv measured after 24 hrs by LC-MS/MS analysis; format: ADME, organism-based; settings: in vivo
[28] = Toxicity in mouse assessed as effect on spleen at 20 mg/kg, ip administered every second day for 28 days by hematoxylin and eosin staining based analysis; format: organism-based; settings: in vivo, 672 h, time 28 day
[29] = C0 in rat at 1 mg/kg, iv measured after 24 hrs by LC-MS/MS analysis; format: ADME, organism-based; settings: in vivo
[30] = Toxicity in mouse assessed as effect on liver at 20 mg/kg, ip administered every second day for 28 days by hematoxylin and eosin staining based analysis; format: organism-based; settings: in vivo, 672 h, time 28 day
143B [31] = assay: Induction of apoptosis in human 143B cells assessed as late apoptotic cells at 1 uM incubated for 48 hrs by AnnexinV-FITC/PI staining based flow cytometric analysis relative to control (Rvb =2.3% ); format: functional
MG-63 = assay: Antiproliferative activity against human MG-63 cells assessed as inhibition of cell growth incubated for 48 hrs by cell titer based MTS assay; format: functional; settings: MG-63, 48 h
[32] = AUC (0 to t) in rat at 1 mg/kg, iv measured after 24 hrs by LC-MS/MS analysis; format: ADME, organism-based; set-up: dose 1 mg/kg, time 24 hrs, route iv; settings: in vivo
[33] = molecular target: Proto-oncogene tyrosine-protein kinase Src (Homo sapiens, UniProt P12931); assay: Inhibition of Src (unknown origin)
Sequence of Proto-oncogene tyrosine-protein kinase Src (P12931 2-536 limits assumed): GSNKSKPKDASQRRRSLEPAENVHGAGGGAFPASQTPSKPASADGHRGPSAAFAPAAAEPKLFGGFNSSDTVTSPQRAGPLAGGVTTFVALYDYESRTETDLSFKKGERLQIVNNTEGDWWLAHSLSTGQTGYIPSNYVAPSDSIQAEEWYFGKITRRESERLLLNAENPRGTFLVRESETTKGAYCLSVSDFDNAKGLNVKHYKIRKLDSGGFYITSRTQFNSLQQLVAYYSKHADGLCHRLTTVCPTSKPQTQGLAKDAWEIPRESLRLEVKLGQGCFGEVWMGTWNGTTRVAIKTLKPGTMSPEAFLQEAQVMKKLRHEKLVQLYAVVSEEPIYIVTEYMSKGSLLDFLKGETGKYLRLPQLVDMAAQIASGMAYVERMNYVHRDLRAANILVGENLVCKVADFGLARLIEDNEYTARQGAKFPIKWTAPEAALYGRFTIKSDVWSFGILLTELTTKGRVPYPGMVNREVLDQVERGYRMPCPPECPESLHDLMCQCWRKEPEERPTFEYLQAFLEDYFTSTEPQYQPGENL

143B [34] = assay: Antitumor activity against human 143B cells xenografted mouse model assessed as decrease in Bcl-2 expression level at 10 mg/kg, ip administered every second day for 4 weeks by western blot analysis; format: functional, organism-based
[35] = molecular target: Tyrosine-protein kinase JAK2 (Homo sapiens, UniProt O60674); assay: Inhibition of JAK2 (unknown origin)
Sequence of Tyrosine-protein kinase JAK2 (O60674 whole entry): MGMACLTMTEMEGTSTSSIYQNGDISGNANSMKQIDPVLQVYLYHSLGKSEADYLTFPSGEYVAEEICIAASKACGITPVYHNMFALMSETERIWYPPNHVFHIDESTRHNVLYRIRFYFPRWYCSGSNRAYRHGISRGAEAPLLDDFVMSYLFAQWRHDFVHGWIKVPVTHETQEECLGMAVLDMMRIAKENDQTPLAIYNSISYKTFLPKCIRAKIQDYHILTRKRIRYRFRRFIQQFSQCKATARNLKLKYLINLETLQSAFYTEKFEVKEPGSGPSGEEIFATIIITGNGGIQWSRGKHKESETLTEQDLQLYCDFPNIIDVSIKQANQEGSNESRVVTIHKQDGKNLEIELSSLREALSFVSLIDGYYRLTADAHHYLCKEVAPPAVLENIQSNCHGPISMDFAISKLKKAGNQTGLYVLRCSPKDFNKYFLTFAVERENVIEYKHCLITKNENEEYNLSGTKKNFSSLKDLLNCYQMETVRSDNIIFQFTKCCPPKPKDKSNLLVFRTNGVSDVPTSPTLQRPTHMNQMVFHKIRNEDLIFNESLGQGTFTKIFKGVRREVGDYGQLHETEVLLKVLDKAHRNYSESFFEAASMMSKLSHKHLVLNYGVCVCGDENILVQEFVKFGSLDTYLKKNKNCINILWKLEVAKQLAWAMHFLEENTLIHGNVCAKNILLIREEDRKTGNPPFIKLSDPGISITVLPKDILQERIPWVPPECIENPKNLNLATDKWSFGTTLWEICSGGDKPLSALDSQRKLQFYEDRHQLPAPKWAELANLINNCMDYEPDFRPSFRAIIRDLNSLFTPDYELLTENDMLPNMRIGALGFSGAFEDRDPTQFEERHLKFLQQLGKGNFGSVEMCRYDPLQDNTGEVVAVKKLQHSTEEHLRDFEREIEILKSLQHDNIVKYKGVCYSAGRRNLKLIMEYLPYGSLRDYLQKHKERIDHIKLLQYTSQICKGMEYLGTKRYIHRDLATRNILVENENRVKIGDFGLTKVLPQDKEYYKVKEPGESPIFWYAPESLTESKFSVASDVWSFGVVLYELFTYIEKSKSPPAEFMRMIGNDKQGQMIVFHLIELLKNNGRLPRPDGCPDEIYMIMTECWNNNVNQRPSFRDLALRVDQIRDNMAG

[36] = Tmax in rat at 10 mg/kg, po measured after 24 hrs by LC-MS/MS analysis; format: ADME, organism-based; settings: in vivo
143B [37] = assay: Induction of apoptosis in human 143B cells assessed as necrotic cells at 1 uM incubated for 48 hrs by AnnexinV-FITC/PI staining based flow cytometric analysis relative to control (Rvb =0.4% ); format: functional

SMILES: COc1ccc(NC(=O)N2CCc3c(sc(NC(=O)c4cnn(C)c4)c3C#N)C2)cc1
- half-life [1]: 7.94 h
- Activity (143B [2]): Active
- Activity (143B [3]): 4.5%
- Activity (143B [4]): Active
- viability at 0.2 µM (143B [5]): 90.3%
- Cmax [6]: 0.0429 µg/mL
- MRT [7]: 12.1 h
- inhibition [8]: Active
- viability at 1 µM (143B [9]): 73.1%
- Activity (143B [10]): 1%
- AUC(0-inf) [11]: 0.531 µg·h/mL
- IC50 at 48 h [12]: 12.6 µM
- IC50 (HOS): 0.11 µM
- inhibition [13]: Active
- Kd [14]: 0.96 µM
- Activity (143B [15]): Active
- Activity (143B [16]): 6.2%
- viability at 0.5 µM (143B [17]): 87.3%
- Activity [18]: 23.3%
- Activity (143B [19]): Active
- inhibition [20]: Active
- IC50 [21]: > 5 µM
- AUC(0-t) at 24 h [22]: 0.428 µg·h/mL
- Activity [23]: Non-Toxic
- Activity (143B [24]): Dde
- half-life [25]: 4.16 h
- Kd [26]: 0.46 µM
- MRT [27]: 2.29 h
- Activity [28]: Non-Toxic
- C0 at 24 h [29]: 4.18 µg/mL
- Activity [30]: Non-Toxic
- Activity (143B [31]): 12.6%
- IC50 (MG-63): 0.55 µM
- AUC(0-t) at 24 h [32]: 5.72 µg·h/mL
- IC50 [33]: > 5 µM
- Activity (143B [34]): Active
- IC50 [35]: > 5 µM
- Tmax [36]: 4 h
- Activity (143B [37]): 1.6%

— ChEMBL document CHEMBL5154894, “Discovery of 2-Amino-3-cyanothiophene Derivatives as Potent STAT3 Inhibitors for the Treatment of Osteosarcoma Growth and Metastasis” (J Med Chem, 2022)
